Assay results published in patent US7888363B2, “Viral polymerase inhibitors” (Boehringer Ingelheim International GmbH, priority 2003, dated 2011).

Target: hepatitis C virus RNA dependant polymerase (NS5B) (Hepatitis C virus genotype 1b, UniProt P26663)
Test: Inhibition of NS5B RNA dependent RNA polymerase activity
Format: biochemical
Conditions: Table 1; HCV NS5B polymerase
Description: A suitable assay is described in the examples.
Inhibition of NS5B RNA Dependent RNA Polymerase Activity
The compounds of the invention were tested for inhibitory activity against the hepatitis C virus RNA dependant polymerase (NS5B), according to protocol described in WO 03/010141

Sequence of hepatitis C virus RNA dependant polymerase (NS5B) (P26663 2420-3010): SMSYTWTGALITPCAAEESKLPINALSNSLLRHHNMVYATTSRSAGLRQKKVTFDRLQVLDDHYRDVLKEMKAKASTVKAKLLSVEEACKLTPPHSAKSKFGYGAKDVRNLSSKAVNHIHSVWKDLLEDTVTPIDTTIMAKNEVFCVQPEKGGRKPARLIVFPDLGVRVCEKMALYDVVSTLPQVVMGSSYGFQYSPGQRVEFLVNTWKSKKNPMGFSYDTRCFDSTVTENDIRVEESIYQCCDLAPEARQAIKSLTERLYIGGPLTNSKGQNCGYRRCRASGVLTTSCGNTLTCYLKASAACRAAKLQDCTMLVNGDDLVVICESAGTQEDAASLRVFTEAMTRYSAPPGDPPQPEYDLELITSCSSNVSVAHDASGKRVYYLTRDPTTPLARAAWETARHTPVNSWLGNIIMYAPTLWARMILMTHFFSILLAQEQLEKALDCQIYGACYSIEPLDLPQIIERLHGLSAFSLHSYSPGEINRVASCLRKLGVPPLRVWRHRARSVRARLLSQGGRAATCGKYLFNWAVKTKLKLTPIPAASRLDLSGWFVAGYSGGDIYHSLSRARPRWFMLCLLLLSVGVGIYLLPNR

IC50 [nM] | Structure (SMILES)
< 200 | CN1CCCN(C(=O)Cn2c(-c3ccoc3)c(C3CCCCC3)c3ccc(C(=O)O)cc32)CC1 [Example 1003]
< 200 | CN(C)C(=O)Cn1c(-c2ccoc2)c(C2CCCCC2)c2ccc(C(=O)O)cc21 [Example 1111]
< 200 | CC(C)N(C)C(=O)Cn1c(-c2ccoc2)c(C2CCCCC2)c2ccc(C(=O)O)cc21 [Example 1118]
200 to 1000 | O=C(O)CN(Cc1ccccc1)C(=O)Cn1c(-c2ccoc2)c(C2CCCCC2)c2ccc(C(=O)O)cc21 [Example 1109]
< 200 | O=C(O)c1ccc2c(C3CCCCC3)c(-c3ccoc3)n(CC(=O)N3CCCC3)c2c1 [Example 1094]
200 to 1000 | COCCN(C)C(=O)Cn1c(-c2ccoc2)c(C2CCCCC2)c2ccc(C(=O)O)cc21 [Example 1124]
< 200 | O=C(O)CNNC(=O)Cn1c(-c2ccoc2)c(C2CCCCC2)c2ccc(C(=O)O)cc21 [Example 1068]
< 200 | CCN(CC)C1CCN(C(=O)Cn2c(-c3ccoc3)c(C3CCCCC3)c3ccc(C(=O)O)cc32)C1 (stereo not drawn) [Example 1016]
1000 to 10000 | CNC(=O)Cn1c(-c2ccccn2)c(C2CCCCC2)c2ccc(C(=O)O)cc21 [Example 1143]
< 200 | CN(C)CCCN(C)C(=O)Cn1c(-c2ccoc2)c(C2CCCCC2)c2ccc(C(=O)O)cc21 [Example 1019]
< 200 | O=C(O)c1ccc2c(C3CCCCC3)c(-c3ccsc3)n(CC(=O)N3CCOCC3)c2c1 [Example 1027]
1000 to 10000 | O=C(O)c1ccc2c(C3CCCCC3)c(-c3ccoc3)n(CC(=O)N3CC[C@@H]4CCCC[C@@H]4C3)c2c1 [Example 1018]
200 to 1000 | O=C(Cc1ccccc1)NNC(=O)Cn1c(-c2ccoc2)c(C2CCCCC2)c2ccc(C(=O)O)cc21 [Example 1117]
< 200 | CN(C)C(=O)Cn1c(-c2ccco2)c(C2CCCCC2)c2ccc(C(=O)O)cc21 [Example 1031]
200 to 1000 | COCCN(CCOC)C(=O)Cn1c(-c2ccco2)c(C2CCCCC2)c2ccc(C(=O)O)cc21 [Example 1014]
< 200 | O=C(Cn1c(-c2ccoc2)c(C2CCCCC2)c2ccc(C(=O)O)cc21)NNC(=O)c1ccncc1 [Example 1059]
200 to 1000 | O=C(Cn1c(-c2ccoc2)c(C2CCCCC2)c2ccc(C(=O)O)cc21)NC1CCCCC1 [Example 1088]
< 200 | O=C(O)CNC(=O)Cn1c(-c2ccoc2)c(C2CCCCC2)c2ccc(C(=O)O)cc21 [Example 1067]
< 200 | CN(C)C(=O)[C@@H]1CCCN1C(=O)Cn1c(-c2ccoc2)c(C2CCCCC2)c2ccc(C(=O)O)cc21 [Example 1122]
< 200 | CS(=O)(=O)c1ccc(CNC(=O)Cn2c(-c3ccoc3)c(C3CCCCC3)c3ccc(C(=O)O)cc32)cc1 [Example 1127]
200 to 1000 | CNC(=O)Cn1c(-c2ccoc2)c(C2CCCCC2)c2ccc(C(=O)O)cc21 [Example 1062]
< 200 | CCCN(C)C(=O)Cn1c(-c2ccoc2)c(C2CCCCC2)c2ccc(C(=O)O)cc21 [Example 1008]

The remaining lines, values behind:

Structure (SMILES) | IC50 [nM]
O=C(O)c1ccc2c(C3CCCCC3)c(-c3cccs3)n(CC(=O)N3CCOCC3)c2c1 [Example 1033] | < 200
Nc1cccc(-c2c(C3CCCCC3)c3ccc(C(=O)O)cc3n2CC(=O)N2CCC(N3CCCC3)CC2)n1 [Example 1050] | < 200
O=C(O)c1ccc2c(C3CCCCC3)c(-c3ccccn3)n(CC(=O)N3CCCC3)c2c1 [Example 1084] | 200 to 1000
CN1CCN(C(=O)Cn2c(-c3ccccn3)c(C3CCCCC3)c3ccc(C(=O)O)cc32)CC1 [Example 1082] | < 200
O=C(O)c1ccc2c(C3CCCCC3)c(-c3cnccn3)n(CC(=O)N3CCC(N4CCCC4)CC3)c2c1 [Example 1045] | < 200
CC(C)(NC(=O)Cn1c(-c2ccccn2)c(C2CCCCC2)c2ccc(C(=O)O)cc21)C(=O)Nc1ccc(/C=C/C(=O)O)cc1 [Example 1083] | 200 to 1000
O=C(O)c1ccc2c(C3CCCCC3)c(-c3ccc(Br)cn3)n(CC(=O)N3CCC[C@H]3C(=O)O)c2c1 [Example 1137] | 200 to 1000

Same assay, conditions: Table 2; HCV NS5B polymerase

Structure (SMILES) | IC50 [nM]
O=C(NS(=O)(=O)c1ccccc1Br)c1ccc2c(C3CCCCC3)c(-c3ccoc3)n(CC(=O)N3CCOCC3)c2c1 [Example 2011] | < 200
O=C(NS(=O)(=O)c1c(Cl)nc2sccn12)c1ccc2c(C3CCCCC3)c(-c3ccoc3)n(CC(=O)N3CCOCC3)c2c1 [Example 2037] | < 200
Cc1noc(C)c1S(=O)(=O)NC(=O)c1ccc2c(C3CCCCC3)c(-c3ccoc3)n(CC(=O)N3CCOCC3)c2c1 [Example 2034] | < 200

Same assay, conditions: Table 3; HCV NS5B polymerase

Structure (SMILES) | IC50 [nM]
CN1CCN(C(=O)Cn2c(-c3ccccn3)c(C3CCCCC3)c3ccc(C(=O)NC4(C(=O)Nc5ccc(/C=C/C(=O)O)cc5)CCC4)cc32)CC1 [Example 3007] | < 200
O=C(O)/C=C/c1ccc(NC(=O)C2(NC(=O)c3ccc4c(C5CCCCC5)c(-c5ccccn5)n(CC(=O)N5CCCC5)c4c3)CCC2)cc1 [Example 3008] | < 200

Same assay, conditions: Table 4; class ranges

IC50 [nM] | Structure (SMILES)
200 to 1000 | COC(=O)C1(NC(=O)c2ccc3c(C4CCCCC4)c(-c4ccoc4)n(CC(=O)N4CCOCC4)c3c2)COCOC1 [Example 4080]
200 to 1000 | C#CC1(NC(=O)c2ccc3c(C4CCCCC4)c(-c4ccoc4)n(CC(=O)N4CCOCC4)c3c2)CCCCC1 [Example 4071]
200 to 1000 | C[C@@H](NC(=O)c1ccc2c(C3CCCCC3)c(-c3ccoc3)n(CC(=O)N3CCN(C)CC3)c2c1)c1ccccc1 [Example 4039]
200 to 1000 | CN1CCN(C(=O)Cn2c(-c3ccoc3)c(C3CCCCC3)c3ccc(C(=O)NCc4ccc5c(c4)OCO5)cc32)CC1 [Example 4013]
< 200 | CN(C)C(=O)C1(NC(=O)c2ccc3c(C4CCCCC4)c(-c4ccoc4)n(CC(=O)N4CCOCC4)c3c2)CCC1 [Example 4093]
200 to 1000 | CN1CCN(C(=O)Cn2c(-c3ccoc3)c(C3CCCCC3)c3ccc(C(=O)NCC(=O)c4ccccc4)cc32)CC1 [Example 4031]
200 to 1000 | CCN1CCCC1CNC(=O)c1ccc2c(C3CCCCC3)c(-c3ccoc3)n(CC(=O)N3CCN(C)CC3)c2c1 (stereo not drawn) [Example 4010]
200 to 1000 | CN1CCN(C(=O)Cn2c(-c3ccoc3)c(C3CCCCC3)c3ccc(C(=O)NCCC4CCCN4C)cc32)CC1 (stereo not drawn) [Example 4009]
200 to 1000 | CN1CCN(C(=O)Cn2c(-c3ccoc3)c(C3CCCCC3)c3ccc(C(=O)NCCc4ccccn4)cc32)CC1 [Example 4016]
200 to 1000 | CN1CCN(C(=O)Cn2c(-c3ccoc3)c(C3CCCCC3)c3ccc(C(=O)NCc4ccc(F)cc4)cc32)CC1 [Example 4022]

Second part, the molecule before the results:

Structure (SMILES) | IC50 [nM]
O=C(NCCc1ccncc1)c1ccc2c(C3CCCCC3)c(-c3ccoc3)n(CC(=O)N3CCOCC3)c2c1 [Example 4050] | 200 to 1000
CC(C)(NC(=O)c1ccc2c(C3CCCCC3)c(-c3ccoc3)n(CC(=O)N3CCC(N4CCCC4)CC3)c2c1)c1ccccc1 [Example 4060] | 200 to 1000
O=C(NC1(c2csc(Cc3ccccc3)n2)CCC1)c1ccc2c(C3CCCCC3)c(-c3ccoc3)n(CC(=O)N3CCC(N4CCCC4)CC3)c2c1 [Example 4104] | 1000 to 10000
CC(=O)Nc1nc(C2(NC(=O)c3ccc4c(C5CCCCC5)c(-c5ccoc5)n(CC(=O)N5CCC(N6CCCC6)CC5)c4c3)CCC2)cs1 [Example 4102] | < 200
CNC(=O)C1(NC(=O)c2ccc3c(C4CCCCC4)c(-c4ccoc4)n(CC(=O)N4CCC(N5CCCC5)CC4)c3c2)CCCC1 [Example 4094] | < 200

Same assay, conditions: Table 5; HCV NS5B polymerase

Structure (SMILES) | IC50 [nM]
CC(C(=O)N(C)C)n1c(-c2ccoc2)c(C2CCCCC2)c2ccc(C(=O)O)cc21 (stereo not drawn) [Example 5009] | 1000 to 10000

Same assay, conditions: Table 6; HCV NS5B polymerase

Structure (SMILES) | IC50 [nM]
O=C(O)c1ccc2c(c1)c(C1CCCCC1)c(-c1ccoc1)n2CC(=O)N1CCOCC1 [Example 6001] | 200 to 1000

Same assay, conditions: Table 7; class ranges

IC50 [nM] | Structure (SMILES)
200 to 1000 | COc1cc2c(C3CCCCC3)c(-c3ccoc3)n(CC(=O)N(C)C)c2cc1C(=O)O [Example 7006]
1000 to 10000 | O=C(O)c1cc2c(cc1O)c(C1CCCCC1)c(-c1ccoc1)n2CC(=O)N1CCC(N2CCCC2)CC1 [Example 7007]
1000 to 10000 | CN(C)C(=O)Cn1c(-c2ccoc2)c(C2CCCCC2)c2cc(O)c(C(=O)O)cc21 [Example 7009]
1000 to 10000 | O=C(O)c1cc2c(cc1O)c(C1CCCCC1)c(-c1ccoc1)n2CC(=O)N1CCOCC1 [Example 7008]

Further lines, the molecule ahead of its results:

Structure (SMILES) | IC50 [nM]
O=C(NC[C@H]1CC[C@H](C(=O)O)CC1)c1ccc2c(c1)c(C1CCCCC1)c(-c1ccoc1)n2CC(=O)N1CCC(N2CCCC2)CC1 [Example 7054] | 1000 to 10000
O=C(NCCc1c[nH]cn1)c1ccc2c(c1)c(C1CCCCC1)c(-c1ccoc1)n2CC(=O)N1CCC(N2CCCC2)CC1 [Example 7015] | 1000 to 10000
CC(C)(C)NC(=O)[C@@H]1Cc2ccccc2CN1C(=O)c1ccc2c(c1)c(C1CCCCC1)c(-c1ccoc1)n2CC(=O)N1CCC(N2CCCC2)CC1 [Example 7061] | 1000 to 10000
CC(=O)NC1CCN(C(=O)c2ccc3c(c2)c(C2CCCCC2)c(-c2ccoc2)n3CC(=O)N2CCC(N3CCCC3)CC2)C1 (stereo not drawn) [Example 7039] | 1000 to 10000
O=C(Nc1ccc(CCO)cc1)c1ccc2c(c1)c(C1CCCCC1)c(-c1ccoc1)n2CC(=O)N1CCC(N2CCCC2)CC1 [Example 7024] | 1000 to 10000
O=C(NCCN1CCCC1)c1ccc2c(c1)c(C1CCCCC1)c(-c1ccoc1)n2CC(=O)N1CCC(N2CCCC2)CC1 [Example 7014] | 1000 to 10000
Cc1cccc(CNC(=O)c2ccc3c(c2)c(C2CCCCC2)c(-c2ccoc2)n3CC(=O)N2CCC(N3CCCC3)CC2)c1 [Example 7029] | 1000 to 10000
O=C(O)CCc1cccc(NC(=O)c2ccc3c(c2)c(C2CCCCC2)c(-c2ccoc2)n3CC(=O)N2CCC(N3CCCC3)CC2)c1 [Example 7056] | 1000 to 10000
O=C(O)/C=C/c1ccc(NC(=O)C2(NC(=O)c3ccc4c(c3)c(C3CCCCC3)c(-c3ccoc3)n4CC(=O)N3CCC(N4CCCC4)CC3)CCC2)cc1 [Example 7062] | 1000 to 10000
COC(=O)C(Cc1ccc(Cl)cc1)NC(=O)c1ccc2c(c1)c(C1CCCCC1)c(-c1ccoc1)n2CC(=O)N1CCC(N2CCCC2)CC1 (stereo not drawn) [Example 7060] | 1000 to 10000
O=C(NS(=O)(=O)c1ccccc1)c1ccc2c(c1)c(C1CCCCC1)c(-c1ccoc1)n2CC(=O)N1CCC(N2CCCC2)CC1 [Example 7063] | 1000 to 10000
